Measurements published in patent publication US20080255052A1, “Immunologic regulation by theta defensins” (priority 2004, published 2008).
Entries after “also recorded” stand apart in the source; their conditions may differ. Bridges are numbered along the chain shown (N, C = ends).

What was measured:
[1] = test system: LPS-stimulated cells; conditions: cited from earlier work
[2] = test system: Escherichia coli ML35, Staphylococcus aureus 502A, Candida albicans, Cryptococcus neoformans; test: Microbicidal and agar diffusion assays in low salt diluents; format: cell-based, bacteria and fungi; conditions: low salt conditions, absence of physiologic salt
Procedure: The antimicrobial activities of various theta defensin compounds were measured using a diffusion assay against bacteria (Staphylococcus aureus 502a and Escherichia coli ML35) and fungi (Candida albicans 16820 and Cryptococcus neoformans 271A). The antimicrobial activities were determined in an agar diffusion assay as described previously (Osapay et al., J. Biol. Chem. 275:12017-12022 (2000)). Briefly, 10-μl wells were bored in a 9-cm^2 plate of agarose, buffered with 10 mM 1,4-piperazine-bis(ethanesulfonic acid) (PIPES), pH 7.4, containing 5 mM glucose, and seeded with 1×10^6 mid-log phase cells. Five-μl aliquots of each peptide, dissolved in 0.01% acetic acid (HOAc) at 10-300 μg/ml, were added to each well. After incubation at 37° C. for 2 h, the seeded agar was overlaid with molten agarose containing 6% trypticase soy broth (for bacteria) or Sabouraud dextrose broth (for fungi). Plates were incubated at 37° C. for 18-24 h, and antimicrobial activity was determined by measuring the diameter of clearing around each well.
(§1) The microbicidal activities of various theta defensin peptides were determined by incubating 2×10^6 CFU/ml with peptides (0-100 μg/ml) in 50 μl of low salt diluents: 10 mM PIPES buffer containing 5 mM glucose, pH 7.4, 10 mM Tris-HCl, pH 7.4, or 10 mM sodium phosphate, pH 7.4, or the same diluents supplemented with 25 to 154 mM NaCl. After 2 h incubation at 37° C., the cell suspensions were diluted 1:50 with 10 mM sodium phosphate buffer, pH 7.4, and exponentially spread with an Autoplate 400 (Spiral Biotech, MD) onto trypticase soy agar (bacteria) or Sabouraud dextrose agar (fungi). After incubation at 37° C. for 18-48 h, colonies were counted and cell survival was expressed as CFU/ml.
FIGS. 2-4 show the results of microbicidal assays performed with various theta defensins and protegrin. Cells were incubated for 2 hours at 37° C. in 10 mM PIPES, pH 7.4, and 5 mM glucose, as described above.
FIGS. 5-8 show antimicrobial activities of various theta defensins as measured using the diffusion assay. […]

[3] = test system: Human PBMCs; test: TNFα release from LPS-stimulated PBMCs; format: cell-based; conditions: LPS 10 μg/ml, RTD-1 0.1-10 μg/ml, supernatants after 3 days
Procedure: Human PBMCs were prepared by the dextran sedimentation method and resuspended in Iscove's Modified Dulbecco's Medium containing 10% fetal bovine serum. […] Under conditions shown in A-C, aliquots containing 0.5−1×10^6 PBMCs were incubated with 10 μg/ml lipopolysaccharide (LPS) for 2 hours at 37° C., 5% CO2, then treated with RTD-1 (A: 10 μg/ml, B: 1 μg/ml, C, 0.1 μg/ml). Under conditions shown in D-E, a mixture of LPS (10 μg/ml) and RTD-1 (D: 10 μg/ml, E: 1 μg/ml, F: 0.1 μg/ml) were incubated for 2 hours at 37° C. then added to PBMC. Under conditions shown in G-L, control incubations were performed in which PBMCs were incubated with either 10 μg/ml LPS (G), 1 μg/ml phorbol 12-myristate 13-acetate (PMA) (H), varying concentrations of RTD-1 (1:10 μg/ml, J:1 μg/ml, K:0.1 μg/ml), or in media (L). Supernatants from these incubations were harvested after 3 days and soluble TNF was measured using Human TNF ELISA Kit II (BD Biosciences, San Diego). Results were obtained from duplicate incubations.

[4] = test system: S. aureus and E. coli ML35; test: Antimicrobial activities in physiological salts and serum; format: cell-based; conditions: NaCl, CaCl2, MgCl2; 10% human serum
Procedure: as §1
(§2) Staphylocidal activities of theta defensins and protegrin were assayed in various buffers and salt concentrations. Log-phase bacteria were incubated for 2 h at 37° C. with increasing concentrations of the peptides (FIG. 9). Cells were incubated with increasing concentrations of RTD-1 (filled circles), RTD-2 (filled triangles), RTD-3 (filled squares), and PG-1 (filled diamonds) in 10 mM PIPES (FIG. 9A), 10 mM Tris-Cl (FIG. 9B), or 10 mM sodium phosphate (FIG. 9C), at pH 7.4, containing 154 mM NaCl.
The bactericidal activities of theta defensins against E. coli in various physiological salt concentrations were also tested. […] Killing of E. coli ML35 was measured by incubating increasing concentrations of RTD-1 (filled circles), RTD-2 (filled triangles), RTD-3 (filled squares), and PG-1 (filled diamonds) with log-phase E. coli ML35 in 10 mM PIPES, pH 7.4, with CaCl2 (1.2 mM) (FIG. 10A), MgCl2 (0.8 mM) (FIG. 10B), or in control incubations where the divalent salts were omitted (FIG. 10C).
The activities of theta defensins in the presence of serum were also analyzed. […] Dose-dependent bactericidal activities of RTD-1 (filled circles), RTD-2 (filled triangles), RTD-3 (filled squares), and PG-1 (filled diamonds) against bacteria were determined in 10 mM PIPES, pH 7.4, containing 10% normal (for S. aureus) or heat-inactivated (for E. coli) human serum.

[5] = test system: various theta defensin peptides
[6] = test system: Staphylococcus aureus; test: Staphylocidal activity in buffers containing physiologic NaCl; format: cell-based; conditions: 154 mM NaCl, pH 7.4, 2 h at 37° C.
Procedure: as §1, §2

[7] = test system: primary R5 strain of HIV-1; test: Anti-HIV activity in PHA-stimulated PBMCs (p24 ELISA); format: cell-based; conditions: day 7 of infection
Procedure: Phytohaemagglutinin (PHA)-stimulated peripheral blood mononuclear cells (PBMCs), pre-incubated for 3 hours with serial dilutions of defensins, were mixed with 1000 TCID50 (50% infectivity of susceptible cells in tissue culture) of a primary R5 strain of HIV-1. Two hours later, the cells were washed, and fresh medium containing defensin and 20 U/ml of IL-2 was added. Five days after infection, 50% of the medium was removed and replaced with fresh medium containing defensin and IL-2. On day 7 of infection, the levels of HIV protein p24 in supernatant fluid were measured by ELISA. […] The active β-defensin was human β-defensin-3.

Substance	antimicrobial activity in vitro [2]	activity in the presence of physiological salts and serum [4]	antimicrobial activity in the presence of salt compared to RTD-1 [6]	other results
Gly-Phe-Cys-Arg-Cys-Leu-Cys-Arg-Arg-Gly-Val-Cys-Arg-Cys-Ile-Cys-Thr-Arg (cyclo(GFCRCLCRRGVCRCICTR); disulfide 7-12, 5-14, 3-16) [RTD-1, Rhesus theta defensin, macrocyclic 18-amino acid antimicrobial peptide, heterodimer of RTD1a and RTD1b nonapeptides]	nearly indistinguishable	active	–	levels of pro-inflammatory cytokines (TNF-α, IL-1β) [1]: Reduction; extracellular release of TNFα [3]: modulates extracellular release of TNF-a
Purified β-galactosidase	–	–	–	β-Galactosidase activity measured as the rate of o-nitrophenyl-beta-D-galactopyranoside (ONPG) hydrolysis, compared to that obtained in the absence of peptide [5]: various theta defensins inhibited β-galactosidase enzymatic activity
RTD-2: naturally occurring theta defensin, homodimer of nine-residue sequences (SEQ ID NO:4, FIG. 1) (cyclo(GFCRCICTRGFCRCICTR); not fully specified (bridges); also: homodimer of nine-residue sequences, cyclic; listed as Macaca mulatta)	nearly indistinguishable	active	more potent antimicrobial activity; also recorded: higher antimicrobial activity than RTD-1	–
RTD-3: naturally occurring theta defensin, homodimer of nine-residue sequences (SEQ ID NO:6, FIG. 1) (cyclo(GVCRCLCRRGVCRCLCRR); not fully specified (bridges); also: homodimer of nine-residue sequences, cyclic; listed as Macaca mulatta)	nearly indistinguishable	active	more potent antimicrobial activity; also recorded: higher antimicrobial activity than RTD-1	–
human β-defensin-3: human β-defensin-3, the active β-defensin in the anti-HIV assay (GIINTLQKYYCRVRGGRCAVLSCLPKEEQIGKCSTRGRKCCRRKK; Beta-defensin 103; UniProt P81534 23-67, looked up)	–	–	–	anti-HIV activity (HIV protein p24 in supernatant) [7]: active
